# Laboratory results published in US8258103B2, “Pesticidal composition” (Sumitomo Chemical Company, Limited, priority 2007, dated 2012).
# Legend:
# Spodoptera litura [1] = test: Test Example 2: cabbage leaf immersion test, insecticidal rate on fourth-instar larvae; format: in vivo; details: after 2 days
# Experimental: (§1) The theoretical value of an insecticidal (ovicidal) rate obtained by using a mixture of 2 kinds of active ingredients was calculated by the following formula: E=X+Y−(X×Y/100), which conforms to the Colby's formula. X: Insecticidal rate (%) of the active ingredient A at M Ppm Y: Insecticidal rate (%) of the active ingredient B at N ppm E: Theoretical insecticidal rate (%) of combination use of the active ingredient A at M ppm and the active ingredient B at N ppm
# (§2) When an actual insecticidal (ovicidal) rate exceeds the theoretical value, it is determined that the used two active ingredients produce a synergetic effect.
# (§3) (1) The formulation A was diluted with water to prepare a water dilution having an active ingredient concentration shown in Table 2. To the water dilution, 1/5,000 volume of a spreading agent (Sindain, manufactured by Sumitomo Chemical Takeda Agro Co., Ltd.) was added to prepare a test solution containing the present compound 1.
# as §3, with “The” for “(1) The”, “formulation B” for “formulation A”, “compound 2.” for “compound 1.”
# (§4) A water dilution of the formulation A and a water dilution of the formulation B were mixed so that the respective active ingredients could reach concentrations shown in Table 2. To the mixture, 1/5,000 volume of a spreading agent (Sindain, manufactured by Sumitomo Chemical Takeda Agro Co., Ltd.) was added to prepare a test solution containing the present compound 1 and the present compound 2.
# (§5) (2) A cabbage was planted in a pot and grown until the fourth leaf stage. The leaves of the cabbage were cut off one by one, and then immersed in the above-described test solution for 60 seconds. After air drying, the cabbage leaves were each placed in a cup with a filter paper spread on the bottom. Ten fourth-instar larvae of Spodoptera litura were released into each cup. […] An insecticidal rate was calculated and corrected according to the following formula. Insecticidal rate (%)=100×(Mt−Mc)/(100−Mc)
# (§6) Mt: Worm death rate (%) in a section treated with a test compound
# (§7) Mc: Worm death rate (%) in a section not treated with a test compound
# Spodoptera litura [2] = test: Test Example 1: cabbage leaf immersion test, insecticidal rate on fourth-instar larvae; format: in vivo; details: for Found value of insecticidal rate (%): after 2 days
# Experimental: as §1, §2
# (1) 12 parts of spinetoram as the present compound 1, 35 parts of a carrier on which a polyoxyethylene alkyl ether sulfate ammonium salt and white carbon in a weight ratio of 1:1 were adsorbed, and 53 parts of water were mixed, and finely milled by a wet milling method to obtain a spinetoram formulation (hereinafter, referred to as the formulation A).
# (2) A flowable formulation containing 10 parts of pyridalyl, which is the present compound 2, as the active ingredient (trade name: PLEO flowable, manufactured by Sumitomo Chemical Co., Ltd.) (hereinafter, referred to as the formulation B) was used.
# as §3, with “(3)” for “(1)”, “1.” for “2.”, “1. The formulation B was diluted with water to prepare a water dilution having an active ingredient concentration shown in Table 1. To the water dilution, 1/5,000 volume of a spreading agent (Sindain, manufactured by Sumitomo Chemical Takeda Agro Co., Ltd.) was added to prepare a test solution containing the present compound 2.” for “1.”
# as §4, with “Table 1.” for “Table 2.”
# as §5, with “(4)” for “(2)”, “formula.” for “formula. Insecticidal rate (%)=100×(Mt−Mc)/(100−Mc)”
# Insecticidal rate (%)=100×(Mt−Mc)/(100−Mc)
# as §6, §7
molecule,measurement,setting,value
"FC(F)(F)c1ccc(OCCCOc2c(Cl)cc(OCC=C(Cl)Cl)cc2Cl)nc1 [Pyridalyl (present compound 2), 2,6-dichloro-4-(3,3-dichloroallyloxy)phenyl 3-[5-(trifluoromethyl)-2-pyridyloxy]propyl ether]",Found value of insecticidal rate (%),Spodoptera litura [1]; 0.25 ppm single ingredient,0%
same,Found value of insecticidal rate (%),Spodoptera litura [1]; 2.5 ppm single ingredient,16.7%
same,Theoretical value of insecticidal rate (%),Spodoptera litura [2]; 2.5 ppm single ingredient,0%
same,Found value of insecticidal rate (%),Spodoptera litura [2]; 2.5 ppm single ingredient,0%
spinetoram [Spinetoram (present compound 1)],Found value of insecticidal rate (%),Spodoptera litura [1]; 0.25 ppm single ingredient,0%
same,Found value of insecticidal rate (%),Spodoptera litura [1]; 2.5 ppm single ingredient,0%
same,Theoretical value of insecticidal rate (%),Spodoptera litura [2]; 0.73 ppm single ingredient,0%
same,Found value of insecticidal rate (%),Spodoptera litura [2]; 0.73 ppm single ingredient,0%
same,Theoretical value of insecticidal rate (%),Spodoptera litura [2]; 2.9 ppm single ingredient,0%
same,Found value of insecticidal rate (%),Spodoptera litura [2]; 2.9 ppm single ingredient,0%
